Data published in patent publication US12144886B2, “Perineural administration of resiniferatoxin for treatment of maladaptive pain” (Sorrento Therapeutics, Inc., priority 2018, dated 2024).

Tests used:
[1] = test system: declawed cat with maladaptive pain; test: Tolerance and safety of perineural RTX in a single declawed cat; format: in vivo
Protocol: The safety of the injection of RTX is assessed by comparing the results of a complete blood count (CBC) and a chemistry panel done at screening with the results obtained at day 14. Cats were also monitored for adverse events.
(§1) Tolerance, safety, and analgesic effects of RTX administration were evaluated in a single declawed cat with maladaptive pain. […] The cat also presented a self-limiting decreased appetite for 12 hours post injection.

[2] = test system: declawed cats with chronic distal thoracic limb pain; test: QoL and pain monitoring (CSOMf, FMPI, owner reports) in open-label trial of perineural RTX in declawed cats; format: in vivo, cat
Protocol: Cats suffering from severe bilateral chronic pain (more than 90 days) as a result of severe complications after onychectomy were enrolled in this study (an exploratory, open-label, multicenter clinical trial). Thirteen (13) cases were treated for initial pain and reduced quality of life (QoL). Then, bilateral perineural distal limb injections (ring block technique) were administered under general anesthesia (a combination of diphenhydramine, buprenorphine, dexmedetomidine, ketamine, and isoflurane). Following a published technique (Enomoto et al., 2016) for the nerve block of the manus of the cat, the total dose of RTX was equally distributed adjacent to the 1) superficial branch of the radial nerve, 2) dorsal branch of the ulnar nerve, 3) median nerve and superficial branch of the palmar branch of the ulnar nerve, and 4) deep branch of palmar branch of the ulnar nerve. A total of 2.5 ug (1.25 ug/1 mL per forelimb in Group 1, n=7) and 5 ug (2.5 ug/1 mL per forelimb in Group 2, n=6) of RTX was injected as a one-time treatment. Group 2 included the cat for which detailed results are provided in Example B above. Monitoring of QoL and pain for the following 28 days was accomplished using the Client-Specific Outcome Measures feline (CSOMf), the Feline Musculoskeletal Pain Index (FMPI), two post-injection physical examinations, and videography on days 3, 7, 14, and 28 post injections.

[3] = test system: declawed cat with maladaptive pain; test: Client Specific Outcome Measure (CSOM) in a declawed cat after perineural RTX nerve blocks; format: in vivo; design: key to CSOM Total score / CSOM Q1 Extending distal limb; “kneading”; stretching / CSOM Q2 Running / CSOM Q3 Jumping down from bed and window: 1 = no problem; 2 = mild difficulty; 3 = moderate; 4 = severe difficulty; 5 = impossible; conditions: one cat; for CSOM Q1 Extending distal limb; “kneading”; stretching / CSOM Q2 Running / CSOM Q3 Jumping down from bed and window / CSOM Total score: 2.5 μg/forelimb perineural
Protocol: Each dose of 5 μg/cat or 2.5 μg/forelimb will be formulated in 1 cc insulin syringes by diluting 0.1 mL: (2.5 μg) of RTX in 0.9 mL sterile saline for injection immediately before use. For treatment, a total of 1.0 mL (2.5 μg) will be injected as nerve blocks, distributed equally (0.25 ml per injection site) over 4 injection sites for each forelimb.
Four point nerve blocks are performed by injection of 0.25 mL RTX each into the 1) superficial branches of the radial nerve, 2) dorsal branch of the ulnar nerve, 3) median nerve and superficial branch of the palmar branch of the ulnar nerve, and 4) deep branch of the palmar branch of the ulnar nerve. The nerve blocks for each forelimb are performed following a published technique for locoregional block of the manus in cats (Enomoto et al. (2016) J. Feline Med. Surg. 18:838-845). To block the superficial branches of the radial nerve (RSbr nn), the limb is positioned with the dorsal aspect facing upwards and the carpus in 180° of extension. A 25 G×⅝-inch needle is inserted subcutaneously (SC) from a point at the center of the limb at the level of the antebrachiocarpal joint. The needle is advanced approximately 10 mm SC at a 10-20° angle to the long axis of the limb with the bevel facing up. Once the tip of the needle is 3-5 mm from the confluence point of the accessory cephalic and cephalic veins, the injection is made (0.25 mL). To block the dorsal branch of the ulnar nerve (UDbr n), the limb is positioned with the lateral aspect facing upwards. A point is located lateral to and at the same level as the accessory carpal bone (ACb), positioned between the ACb and the styloid process of the ulna (SpU). A 25 G×⅝-inch needle is inserted SC distal to proximal, so the tip lies at the midpoint of the groove formed between ACb and the SpU, and then the injection is made (0.25 mL). To block the median nerve (M n) and superficial branch of the palmar branch of the ulnar nerve (UPbrS n), the limb is positioned with the palmar aspect facing upwards. A 25 G×⅝-inch needle is inserted SC at the distal border of the carpal pad and approximately 5 mm lateral to it, perpendicular to the long axis of the metacarpus, with the bevel facing up. The needle is inserted SC until the point is located two-thirds of the distance from the lateral aspect of the limb to the medial aspect. Two-thirds of the injectate volume is deposited at this point and the remaining volume is injected while the needle is withdrawn (0.25 mL). Gentle massage is applied to the injected volume under the skin for 5 seconds. To block the deep branch of the palmar branch of the ulnar nerve (UPbrDp n), the limb is positioned with the palmar aspect facing upwards. A 25 G×⅝-inch needle is inserted almost perpendicular to the ACb in a mediolateral direction such that the needle contacts the medial palmar aspect of the midpoint of the ACb with the bevel facing up. The needle is then redirected dorsally and advanced on the medial side of the ACb 2-3 mm until it penetrates the flexor retinaculum, and then the injection is made (0.25 mL).
The effectiveness of the injection with RTX is assessed at days 3, 7, and 14 using owner videography for qualitative assessment (jumping, manipulation of the limb), and cats will also be evaluated using the Feline Musculoskeletal Pain Index (FMPI) and the Client Specific Outcome Measure (CSOM).
For CSOM, owners are asked to score three attributes (Q1) Extending distal limb, “kneading”; stretching, (Q2) Running; and (Q3) Jumping down from bed and window using a scale of 1-5 where 1=no problem, 2=mild difficulty, 3=moderate, 4=severe difficulty, and 5=impossible.
as §1

[4] = one cat, 2.5 μg/forelimb perineural

C=C(C)[C@]12C[C@@H](C)[C@@]34O[C@](Cc5ccccc5)(O[C@@H]1[C@@H]3C=C(COC(=O)Cc1ccc(O)c(OC)c1)C[C@]1(O)C(=O)C(C)=C[C@@H]41)O2 [RTX, resiniferatoxin]
Allergic-like reactions ([1]; one cat): No signs of allergic-like reactions were observed
Edema or pain in the injected areas ([1]; one cat): no signs of edema or pain were present
Resolution of adverse events (panting, salivation) ([1]; one cat): resolved within two hours
Complications during RTX administration [1, 4]: No complications were observed
Tolerability of injection [1, 4]: generally well tolerated
Adverse events ([1]; one hour post-injection): panting and salivation
Duration of self-limiting decreased appetite ([1]; post injection, one cat): 12 h
CSOMf and FMPI scores ([2]; 28-day monitoring period, 13 cats): clear improvement
Owner-reported natural and pathological adopted behaviors (QoL) ([2]; both groups): significant changes
Duration of improvements reported informally ([2]; in some cases): over 6 months
Treatment of distal thoracic limb pain ([2]; perineural injections, cats): can effectively treat
CSOM Q1 Extending distal limb; “kneading”; stretching ([3]; Day 0 (baseline)): 3
CSOM Q2 Running ([3]; Day 0 (baseline)): 3
CSOM Q3 Jumping down from bed and window ([3]; Day 0 (baseline)): 2
CSOM Total score ([3]; Day 0 (baseline)): 8
CSOM Q1 Extending distal limb; “kneading”; stretching ([3]; Day 3): 2
CSOM Q2 Running ([3]; Day 3): 3
CSOM Q3 Jumping down from bed and window ([3]; Day 3): 2
CSOM Total score ([3]; Day 3): 7
CSOM Q1 Extending distal limb; “kneading”; stretching ([3]; Day 7): 1
CSOM Q2 Running ([3]; Day 7): 2
CSOM Q3 Jumping down from bed and window ([3]; Day 7): 2
CSOM Total score ([3]; Day 7): 5
CSOM Q1 Extending distal limb; “kneading”; stretching ([3]; Day 14): 2
CSOM Q2 Running ([3]; Day 14): 2
CSOM Q3 Jumping down from bed and window ([3]; Day 14): 2
CSOM Total score ([3]; Day 14): 6
CSOM Q1 Extending distal limb; “kneading”; stretching ([3]; Screening (baseline)): 3
CSOM Q2 Running ([3]; Screening (baseline)): 3
CSOM Q3 Jumping down from bed and window ([3]; Screening (baseline)): 2
CSOM Total score ([3]; Screening (baseline)): 8
CSOM: extending distal limb, kneading, stretching and running ([3]; after injection): showed improvement
